In patent US5208223A, “Phosphocholine derivative inhibitors of phospholipase A2” (American Cyanamid Company, priority 1992, dated 1993):
Structures can show the parent of a compound that is named as a salt.

Legend:
Type in all cases: biochemical
porcine pancreatic PLA2 [1] = biological target: T1, porcine pancreatic PLA2 (Sus scrofa, UniProt P00592); test: MHPLA2 assay: in vitro porcine pancreatic phospholipase A2, mixed micelle design, [s]=10 μm; conditions: for % Inh.: subs. con. 10
T1 construct: purchased Sigma
In short: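 Compounds dried with 10 μM 1-stearyl-2-[3H]-arachidonyl-PC substrate in mixed micelles (0.1M tris-HCl pH 9.0, 10 mM CaCl2, 10 mM Na taurocholate). Reaction started by adding enzyme and run 15 min at 37°C, then stopped with TCA. Released [3H]-arachidonate separated by TLC or column and counted by scintillation.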

porcine pancreatic PLA2 [2] = biological target: T1, porcine pancreatic PLA2; test: PLA2 assay: in vitro porcine pancreatic phospholipase A2, preincubation of drug+enzyme, substrate 2 nM; conditions: preincubation, subs. con. 2
In short: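 Porcine pancreatic PLA2 acting on 2 nM radiolabeled arachidonyl-phosphatidylcholine in mixed micelles (0.1 M Tris-HCl pH 9.0, 10 mM CaCl2, 10 mM Na taurocholate), 15 min at 37 °C with preincubation of drug and enzyme. Stopped with TCA; released 3H-arachidonate extracted, separated by TLC or column, counted by scintillation.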

porcine pancreatic PLA2 [3] = biological target: T1, porcine pancreatic PLA2; test: MPLA2 assay: in vitro porcine pancreatic phospholipase A2, mixed micelle design, substrate 2 nM; conditions: dose 25 μ/ml, subs. con. 2, read-out: % Inh.
In short: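 Radiochemical PLA2 assay, mixed-micelle design: compound dried under N2 with 1-stearyl-2-[3H]-arachidonyl-PC substrate (2 nM) in 0.1M Tris-HCl pH 9.0, 10 mM CaCl2, 10 mM Na taurocholate. Reaction started with enzyme, 15 min at 37° C, stopped with TCA; released [3H]-arachidonate extracted, separated by TLC or column, counted by scintillation.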

porcine pancreatic PLA2 [4] = biological target: T1, porcine pancreatic PLA2; test: HPLA2 assay: in vitro porcine pancreatic phospholipase A2, preincubation design, [s]=10 μm; conditions: for inhibition at 10 µg/mL / inhibition at 20 µg/mL / inhibition at 50 µg/mL: subs. con. 10, read-out: % Inh. Avg.; for % Inh. Avg.: subs. con. 10
Procedure: (§1) Phospholipase A2 activity was measured by a radiochemical assay in which labeled synthetic phosphatidylcholine substrate is converted by porcine pancreatic PLA2 to free radiolabeled arachidonate and lyso PC. Radiolabeled arachidonate is extracted from the reaction mixture and separated from unreacted substrate by column chromatography or TLC. Radioactivity (cpm) in samples is quantitated by liquid scintillation counting. Specific details are as follows:
(§2) Labeled substrate(1-stearyl-2-^3 H-arachidonylphosphatidylcholine; Amersham, sp. act. 84 (uCi/mmole, 0.025 to 0.2 uCi/assay tube and unlabeled substrates (Avanti), in sufficient quantity to give 20,000 cpm to 50,000 cpm and 10 μM to 1,000 μM final concentration/assay tube are dried under a stream of nitrogen. The PLA2 and mPLA2 assays utilized a […] substrate concentration. The mHPLA2 and HPLA2 assays (vida infra) utilized a 10 μM substrate concentration and the SmPLA2 assay utilized a substrate concentration ranging from 100 to 1000 μm. The substrate is then redissolved in 0.1M tris-HCl buffer, pH 9.0 containing 10 mM CaCl2 and 10 mM Na taurocholate detergent. The mixture is sonicated in a Kontes Sonifier to yield a homogeneous dispersion. The "mixed" micellar substrate is clear. An aliquot is reserved for a cpm count (total substrate). The total reaction volume is 500 μL; siliconized glassware or plasticware is used throughout. Enzyme (Sigma, sp. act.>690 U/mg protein and preferably 900 U/mg protein) is diluted 1:750 or 1:1000 in 0.1M tris-HCl buffer, pH 9.0 (without Ca^++ and detergent). Enzyme dilution depends on substrate concentration and required enzyme concentration.
(§3) The substrate in buffer is kept on ice until the reaction is started. The reaction is started by adding 10 μL of diluted enzyme solution to 490 μL of micellar substrate solution. Samples are incubated in a 37° C. water bath for 15 minutes with gentle mixing. The reaction is terminated by the addition of 100 μL of 1M fresh trichloroacetic acid (TCA) solution and chilling the tubes on ice for 30 minutes.
(§4) Samples (600 μL) are extracted with 3 ml CHCl3 /MeOH (2:1) for thin layer chromatography or in hexane/ether (9:1) for column chromatography. The phases are separated by gentle centrifugation at 700 rpm×5'. The organic phase is recovered.
Labeled arachidonate extracted with CHCl3 /MeOH is separated on silica gel G TLC plates (Analtech). Twenty μL of a 2 mg/ml internal standard solution of arachidonic acid (Sigma) is combined with 2-3 ml of the organic phase. The entire mixture is dried under nitrogen and redissolved in 50 μL of CHCl3 /MeOH (2:1). A 20 μL sample is counted in 10 ml of Beckman Redi-solv HP and spotted on silica gel G plates. […] Plates are developed in a glass chamber for 1-11/2 hours, air dried, and the spots visualized in an iodine vapor chamber. Standards of phosphatidylcholine, lyso PC, and arachidonic acid (Sigma) are made as 2 mg/ml stocks in CHCl3 /MeOH (2:1) and spotted on plates. Spots corresponding to arachidonate and phospholipid are scraped and counted in 10 ml Beckman Redi-Solv HP scintillation fluid.
(§5) Samples are extracted with hexane/ether and the upper organic phase recovered. An aliquot is applied to a Silicar CC4 (Malincrodt) column. Columns are prepared using 1 ml of a 1:1 slurry of silicar CC4 in hexane/ether in a Pasteur pipet (approx. 2 cm height). Columns are rinsed with 500 μL of hexane/ether before adding the sample (300-600 μL) to the column. Columns are eluted with a total of 6 ml of hexane/ether. The 6 ml sample is counted in 10 ml of Beckman Redi-Solv HP scintillation fluid.
or the phospholipase A2 assay, compounds are prepared as 1 mg/ml stock solutions in MeOH and diluted appropriately in PBS.

porcine pancreatic PLA2 [5] = biological target: T1, porcine pancreatic PLA2; test: SMPLA2 assay: in vitro porcine pancreatic phospholipase A2, mixed micelle design, substrate 100 to 1000 μm
Procedure: as §1, §2, §3, §4
Labeled arachidonate extracted with CHCl3 /MeOH is separated on silica gel G TLC plates (Analtech). Twenty μL of a 2 mg/ml internal standard solution of arachidonic acid (Sigma) is combined with 2-3 ml of the organic phase. The entire mixture is dried under nitrogen and redissolved in 50 μL of CHCl3 /MeOH (2:1). A 20 μL sample is counted in 10 ml of Beckman Redi-solv HP and spotted on silica gel G plates. The solvent system used to develop the plate is CHCl3 /MeOH/13.5N NH3 /H2 O (70:30:4:1). Plates are developed in a glass chamber for 1-11/2 hours, air dried, and the spots visualized in an iodine vapor chamber. Standards of phosphatidylcholine, lyso PC, and arachidonic acid (Sigma) are made as 2 mg/ml stocks in CHCl3 /MeOH (2:1) and spotted on plates. Spots corresponding to arachidonate and phospholipid are scraped and counted in 10 ml Beckman Redi-Solv HP scintillation fluid.
as §5
or the phospholipase A2 assay, compounds are prepared as 1 mg/ml stock solutions in MeOH and diluted appropriately in PBS. […]

T1 sequence (P00592 23-146): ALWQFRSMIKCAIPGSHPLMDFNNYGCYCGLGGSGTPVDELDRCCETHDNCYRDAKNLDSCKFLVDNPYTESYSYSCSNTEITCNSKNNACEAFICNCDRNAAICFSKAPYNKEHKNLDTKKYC

Compound CCCCCCCCCCCCCCCCOC[C@H](COP(=O)([O-])OCC[N+](C)(C)C)OP(=O)(OC)OCCCCCCCCCCCCCCCC (single isomer, unassigned) has an inhibition at 25 µg/mL (porcine pancreatic PLA2 [1]; dose 25 μ/ml, subs. con. 10, read-out: % Inh.) of 7%, an inhibition at 25 µg/mL (porcine pancreatic PLA2 [2]; dose 25 μ/ml, read-out: % Inh.) of 93% and an IC50 (porcine pancreatic PLA2 [2]; read-out: IC50 (converted)) of 2500 nM. The inhibition at 25 µg/mL (porcine pancreatic PLA2 [3]) was 93%, the inhibition at 10 µg/mL (porcine pancreatic PLA2 [4]; dose 10 μ/ml) was 17% and the inhibition at 20 µg/mL (porcine pancreatic PLA2 [4]; dose 20 μ/ml) was 21%. It also gave an inhibition at 50 µg/mL (porcine pancreatic PLA2 [4]; dose 50 μ/ml) of 30%.
CCCCCCCCCCCCCCCCOC[C@@H](COP(=O)([O-])OCC[N+](C)(C)C)OP(=O)(OC)OCCCCCCCCCCCCCCCC (single isomer, unassigned) showed an inhibition at 10 µg/mL (porcine pancreatic PLA2 [2]; dose 10 μ/ml, read-out: % Inh. Avg.) of 29%, an inhibition at 20 µg/mL (porcine pancreatic PLA2 [2]; dose 20 μ/ml, read-out: % Inh. Avg.) of 26% and an inhibition at 10 µg/mL (porcine pancreatic PLA2 [4]; dose 10 μ/ml) of 22%. It also gave an inhibition at 20 µg/mL (porcine pancreatic PLA2 [4]; dose 20 μ/ml) of 18% and an inhibition at 50 µg/mL (porcine pancreatic PLA2 [4]; dose 50 μ/ml) of 23%.
In the case of CCCCCCCCCCCCCCCCOC[C@@H](COP(=O)([O-])OCC[N+](C)(C)C)OP(=O)(OC)OCCCCCCCCCCCCCCCC (single isomer, unassigned) [3,5,8,10-Tetraoxa-4,9-diphosphahexacosan-1-aminium, 7-[(hexa], the “% Inh.” value (porcine pancreatic PLA2 [1]; dose 25 μ/ml) is reported as 9%, the “% Inh. Avg.” value (porcine pancreatic PLA2 [2]; dose 10 μ/ml) is reported as 25% and the “% Inh. Avg.” value (porcine pancreatic PLA2 [2]; dose 20 μ/ml) is reported as 39%. For the same compound, the “% Inh. Avg.” value (porcine pancreatic PLA2 [4]; dose 10 μ/ml) was 18%, the “% Inh. Avg.” value (porcine pancreatic PLA2 [4]; dose 20 μ/ml) was 12% and the “% Inh. Avg.” value (porcine pancreatic PLA2 [4]; dose 50 μ/ml) was 25%.
CCCCCCCCCCCCCCCCOCC(COP(=O)([O-])OCC[N+](C)(C)C)OP(=O)(O)OCCCCC (single isomer, unassigned; less polar) [3,5,8,10-Tetraoxa-4,9-diphosphapentadecan-1-aminium, 7-[(hexadecyloxy)methyl]-4,9-dihydroxy-N,N,N-trimethyl-, hydroxide, 4-(inner salt), 4,9-dioxide, less polar isomer] was tested, and the “% Inh.” value (porcine pancreatic PLA2 [5]; dose 10 μ/ml, subs. con. 100) was “STIM”, the inhibition at 10 µg/mL (porcine pancreatic PLA2 [5]; dose 10 μ/ml, subs. con. 500) was 7% and the inhibition at 10 µg/mL (porcine pancreatic PLA2 [5]; dose 10 μ/ml, subs. con. 1000) was 22%. The “% Inh.” value (porcine pancreatic PLA2 [5]; dose 25 μ/ml, subs. con. 100) was “STIM”, the inhibition at 25 µg/mL (porcine pancreatic PLA2 [5]; dose 25 μ/ml, subs. con. 500) was 29% and the inhibition at 25 µg/mL (porcine pancreatic PLA2 [5]; dose 25 μ/ml, subs. con. 1000) was 3%. The “% Inh.” value (porcine pancreatic PLA2 [5]; dose 50 μ/ml, subs. con. 100) was “STIM”, the “% Inh.” value (porcine pancreatic PLA2 [5]; dose 50 μ/ml, subs. con. 500) was “STIM” and the “% Inh.” value (porcine pancreatic PLA2 [5]; dose 50 μ/ml, subs. con. 1000) was “STIM”. The “% Inh.” value (porcine pancreatic PLA2 [1]; dose 10 μ/ml) was “STIM”, the “% Inh.” value (porcine pancreatic PLA2 [1]; dose 25 μ/ml) was “STIM” and the inhibition at 10 µg/mL (porcine pancreatic PLA2 [2]; dose 10 μ/ml, read-out: % Inh.) was 21%. It also gave an inhibition at 20 µg/mL (porcine pancreatic PLA2 [2]; dose 20 μ/ml, read-out: % Inh.) of 41% and an inhibition at 25 µg/mL (porcine pancreatic PLA2 [3]) of 100%.
